Experimental data as given in patent US11253517B2, “Small molecule regulators of steroid receptor coactivators and methods of use thereof” (BAYLOR COLLEGE OF MEDICINE, priority 2016, dated 2022).

Experiments:
Type in all cases: cell-based
MDA-MB-468 cells [1] = experiment: EC50 in MDA-MB-468 cells, 72 hours incubation; conditions: Homo sapiens
Experimental: The EC50 values of certain compounds were measured in MDA-MB-468 cells by incubating a series of concentrations of the corresponding compounds for 72 hours.
(§1) In Tables 1 and 2, “−” represents IC50 or EC50 values greater than 10 μM; “+” represents IC50 or EC50 values from greater than 1 μM to 10 μM; “++” represents IC50 or EC50 values from 0.1 μM to 1 μM; and “+++” represents IC50 or EC50 values less than 0.1 μM.

BT-474 cells = experiment: IC50 in BT-474 cells, 72 hours incubation; conditions: Homo sapiens
Experimental: (§2) The compounds described herein were synthesized as described in Example 1. The IC50 values were measured in MDA-MB-468, BT-474, and MCF-7 cells by incubating a series of concentrations of the corresponding compounds for 72 hours.
as §1

MCF-7 cells = experiment: IC50 in MCF-7 cells, 72 hours incubation; conditions: Homo sapiens, MCF7
Experimental: as §2, §1

SRC-3 = biological target: T1, SRC-3 (Homo sapiens, UniProt Q9Y6Q9); experiment: SRC-3 intrinsic transcriptional activity luciferase assay in HeLa cells; conditions: pG5-LUC reporter with pBIND-SRC-3, 24 hours
T1 construct: expressed in transfected cells; host or cells: HeLa
Experimental: Luciferase assays were performed in HeLa cells transiently transfected with the reporter vector pG5-LUC in combination with expression vectors for pBIND and pBIND-SRC-3 before incubation with the compound for 24 hours. In FIG. 1, the first histogram bar in each set represents pBIND; the second histogram bar in each set represents SRC-1; the third histogram bar in each set represents SRC-2; and the fourth histogram bar in each set represents SRC-3.
Intrinsic transcriptional activity assays were conducted as for FIG. 1. In FIG. 2, the left histogram bar in each set represents pBIND and the right histogram bar in each set represents pBIND-SRC3.
The effects of the SI compounds described herein on the intrinsic transcriptional activities of SRC-1, SRC-2 and SRC-3 were investigated. HeLa cells were transiently transfected with a pGL5-LUC reporter and expression vectors for pBIND and pBIND-SRC-1, pBIND-SRC-2, pBIND-SRC-3, followed by 24 hours of treatment with different concentrations of SI compounds. Compounds as described herein, including SI-9, SI-10, SI-11, SI-12, SI-14, SI-15, SI-16, SI-17, SI-19, SI-20, and SI-21, were tested for their ability to inhibit the intrinsic transcriptional activity of SRC-1, SRC-2 and SRC-3 in FIG. 1.

MDA-MB-468 cells [2] = experiment: IC50 in MDA-MB-468 cells, 72 hours incubation; conditions: Homo sapiens
Experimental: as §2, §1

T1 sequence (Q9Y6Q9 whole entry): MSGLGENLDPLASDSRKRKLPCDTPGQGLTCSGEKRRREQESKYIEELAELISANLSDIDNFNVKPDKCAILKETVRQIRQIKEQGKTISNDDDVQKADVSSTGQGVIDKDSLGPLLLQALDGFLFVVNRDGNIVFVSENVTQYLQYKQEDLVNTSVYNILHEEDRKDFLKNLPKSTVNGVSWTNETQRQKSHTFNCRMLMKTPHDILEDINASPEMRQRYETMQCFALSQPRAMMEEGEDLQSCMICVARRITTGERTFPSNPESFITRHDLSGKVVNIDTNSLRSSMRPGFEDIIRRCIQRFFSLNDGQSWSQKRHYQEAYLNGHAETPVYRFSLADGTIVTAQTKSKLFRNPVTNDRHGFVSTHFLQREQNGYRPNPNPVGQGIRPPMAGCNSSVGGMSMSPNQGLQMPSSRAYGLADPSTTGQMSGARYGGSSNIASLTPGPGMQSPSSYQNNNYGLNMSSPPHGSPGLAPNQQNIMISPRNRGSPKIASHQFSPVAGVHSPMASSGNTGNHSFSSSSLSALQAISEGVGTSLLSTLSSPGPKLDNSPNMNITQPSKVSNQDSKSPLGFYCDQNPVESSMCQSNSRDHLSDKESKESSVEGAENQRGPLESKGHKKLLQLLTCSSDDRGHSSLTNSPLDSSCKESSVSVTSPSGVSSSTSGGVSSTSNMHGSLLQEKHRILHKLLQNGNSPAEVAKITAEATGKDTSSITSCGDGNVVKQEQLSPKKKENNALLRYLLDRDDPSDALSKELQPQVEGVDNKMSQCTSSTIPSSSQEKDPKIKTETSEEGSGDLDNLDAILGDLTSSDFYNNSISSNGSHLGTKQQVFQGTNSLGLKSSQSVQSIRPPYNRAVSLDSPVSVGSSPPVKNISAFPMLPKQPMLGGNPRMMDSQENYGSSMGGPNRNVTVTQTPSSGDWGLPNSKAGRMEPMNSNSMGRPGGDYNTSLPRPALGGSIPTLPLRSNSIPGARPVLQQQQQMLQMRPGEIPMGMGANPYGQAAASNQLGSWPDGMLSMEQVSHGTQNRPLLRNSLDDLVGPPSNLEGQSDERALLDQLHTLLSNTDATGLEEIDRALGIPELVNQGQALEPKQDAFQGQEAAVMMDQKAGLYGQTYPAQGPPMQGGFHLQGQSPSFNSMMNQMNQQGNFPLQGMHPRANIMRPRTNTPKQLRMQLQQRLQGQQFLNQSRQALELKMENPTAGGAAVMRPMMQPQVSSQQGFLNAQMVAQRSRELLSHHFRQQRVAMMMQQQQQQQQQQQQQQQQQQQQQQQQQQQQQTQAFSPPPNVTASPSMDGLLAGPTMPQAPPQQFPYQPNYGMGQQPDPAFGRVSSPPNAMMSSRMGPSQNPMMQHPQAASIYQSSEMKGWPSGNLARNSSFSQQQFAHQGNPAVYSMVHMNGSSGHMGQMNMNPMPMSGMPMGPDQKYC

Compound	IC50 (BT-474 cells)	IC50 (MCF-7 cells)	effect on SRC-3 intrinsic activity (SRC-3)	further results
C/C(=N\Nc1nc2ccccc2n1C)c1ncccc1Br [SI-E-01P]				EC50 (MDA-MB-468 cells [1]): 100 to 1000 nM
C/C(=N\Nc1nc2ccccc2n1C)c1ncccn1 [SI-19]	< 100 nM	< 100 nM		
C/C(=N\Nc1nc2ccccc2n1C)c1ccncn1 [SI-20]	< 100 nM	< 100 nM		
C/C(=N\Nc1nc2cc(F)ccc2n1C)c1ccc(F)cn1 [SI-17]	< 100 nM	< 100 nM		
C/C(=N\Nc1nc2ccccc2n1C)c1ncco1 [SI-5]			able to stimulate SRC-3 intrinsic activity at certain doses	
C/C(=N\Nc1nc2cc(F)c(F)cc2n1C)c1ccccn1 [SI-9]	< 100 nM			
C/C(=N\Nc1nc2ccccc2n1C)c1nccn1C [SI-4]			able to stimulate SRC-3 intrinsic activity at certain doses	
C/C(=N\Nc1nc2cc(F)c(F)cc2n1C)c1ccncn1 [SI-11]	< 100 nM	< 100 nM		
C/C(=N\Nc1nc2cc(F)ccc2n1C)c1ccncn1 [SI-16]	< 100 nM	< 100 nM		
C/C(=N\Nc1nc2ccccc2n1C)c1cccs1 [SI-8]			able to stimulate SRC-3 intrinsic activity at certain doses	
C/C(=N\Nc1nc2cc(F)ccc2n1C)c1ncccn1 [SI-15]	< 100 nM	< 100 nM		
C/C(=N\Nc1nc2ccccc2n1C)c1ccc[nH]1 [SI-3]			able to stimulate SRC-3 intrinsic activity at certain doses	
C/C(=N\Nc1nc2cc(F)c(F)cc2n1C)c1ncccn1 [SI-10]	< 100 nM	< 100 nM		
C/C(=N\Nc1nc2cc(F)ccc2n1C)c1ccccn1 [SI-14]	< 100 nM	< 100 nM		
C/C(=N\Nc1nc2ccccc2n1C)c1ccco1 [SI-7]			able to stimulate SRC-3 intrinsic activity at certain doses	
C/C(=N\Nc1nc2ccccc2n1C)c1nccs1 [SI-6]			able to stimulate SRC-3 intrinsic activity at certain doses	IC50 (MDA-MB-468 cells [2]): 100 to 1000 nM
C/C(=N\Nc1nc2ccccc2n1C)c1ccc(F)cn1 [SI-21]	< 100 nM	< 100 nM		
Cn1c(NNC(=O)c2ccccn2)nc2ccccc21 [SI-C-01]				EC50 (MDA-MB-468 cells [1]): 100 to 1000 nM
